Results published in US20100151104A1, “Preservative System For Beverages Based On Combinations Of Trans-Cinnamic Acid, Lauric Arginate, And Dimethyl Dicarbonate” (priority 2008, published 2010).
“And” between values parts separate entries of the source, which are not always exact repeats. Equal entries are not always repeated.

Columns and labels:
Zygosaccharomyces bailii = assay: Growth in 10% apple juice beverage with combinations of LAE & cinnamic acid; log (QA/Qa+QB/Qb) calculation; format: cell-based
Excerpt: Trans-cinnamic acid and lauric arginate were combined in the following beverage formulation: [table] […] The analysis of the interaction between lauric arginate and cinnamic acid can be refined through use of a mathematical method developed by Voorspuij and Nass (Arch. Int. pharmacodyn. 59:211 1957) (generally accepted among those practiced in the art.) Herein, the interactions between two active substances can be explored. First the quantity (Qa=Molar Cone) of compound A required for an end point (concentration required to stabilize product for 16 weeks) is established. Similarly, the quantity (Qb =Molar cone) of substance B required to establish the same endpoint is established. Thereafter, mixtures of A & B, in quantities QA & Qs are established that also define endpoints. […] If the sum of the ratios for a mixture of A & Bare=1, then the interaction is considered additive. […] Calculation of log (QA/Qa+QB/Qb) for LAE+trans Cinnamic Acid vs Zygosaccharomyces bailii

[1] = system: Zygosaccharomyces bisporous and Zygosaccharomyces bailii; assay: Tolerance of fungal strains to cinnamic acid over 16 weeks incubation; format: cell-based
Procedure: Over a period of incubation of 16 weeks, fungal strains are found to be tolerant to cinnamic acid at concentrations as high as 300 ppm, or even as high as 450 ppm cinnamic acid (pH 3.4). Thus, cinnamic acid, as a stand alone preservative, would need to be present at a concentrations as high as 450 ppm (e.g. between 450-500) in order to be assured that of preservation against spoilage by organisms such as Zygosaccharomyces bisporous and Zygosaccharomyces bailii for a period of at least 16 weeks. […] Beverage product case packaged in a container and which must pass through lengthy channels of distribution before reaching the consumer need be stable for a period as long as 16 weeks.

[2] = pKa and un-dissociated fraction of cinnamic acid; format: physicochemical
Excerpt: It should be noted that cinnamic acid has a particularly high plc, value (4.42) and at least 45% of the cinnamic acid added to beverage is in the form of the un-dissociated acid.

fungal strains = details: prior art; incubation no greater than 72 hours; cited from earlier work
yeast and mold = details: recommended by inventor & manufacturer of LAE; cited from earlier work
[3] = stand alone, end point = concentration required to stabilize product for 16 weeks

O=C(O)/C=C/c1ccccc1 [Cinnamic Acid, trans-cinnamic acid]
QA/Qa + QB/Qb (Zygosaccharomyces bailii; QLAE 0, QCA 300): 1.00 | QLAE/QLAE* (Zygosaccharomyces bailii; QLAE 0, QCA 300): 0.00 | QNaB/QNAB* (Zygosaccharomyces bailii; QLAE 0, QCA 300): 1.00 | log (QA/Qa + QB/Qb) (Zygosaccharomyces bailii; QLAE 0, QCA 300): 0.0000 | amount of growth (normalized) to control (Zygosaccharomyces bailii; pH 3.0, LAE 0 ppm, Cinnamic Acid 10 ppm): 89% | amount of growth (normalized) to control (Zygosaccharomyces bailii; pH 3.0, LAE 0 ppm, Cinnamic Acid 20 ppm): 82% | amount of growth (normalized) to control (Zygosaccharomyces bailii; pH 3.0, LAE 0 ppm, Cinnamic Acid 50 ppm): 85% | amount of growth (normalized) to control (Zygosaccharomyces bailii; pH 3.0, LAE 0 ppm, Cinnamic Acid 75 ppm): 45% | amount of growth (normalized) to control (Zygosaccharomyces bailii; pH 3.0, LAE 0 ppm, Cinnamic Acid 100 ppm): 36% | amount of growth (normalized) to control (Zygosaccharomyces bailii; pH 3.5, LAE 0 ppm, Cinnamic Acid 10 ppm): 97% | amount of growth (normalized) to control (Zygosaccharomyces bailii; pH 3.5, LAE 0 ppm, Cinnamic Acid 20 ppm): 92% | amount of growth (normalized) to control (Zygosaccharomyces bailii; pH 3.5, LAE 0 ppm, Cinnamic Acid 50 ppm): 76% | amount of growth (normalized) to control (Zygosaccharomyces bailii; pH 3.5, LAE 0 ppm, Cinnamic Acid 75 ppm): 57% | amount of growth (normalized) to control (Zygosaccharomyces bailii; pH 3.5, LAE 0 ppm, Cinnamic Acid 100 ppm): 48% | amount of growth (normalized) to control (Zygosaccharomyces bailii; pH 4.0, LAE 0 ppm, Cinnamic Acid 10 ppm): 103% | amount of growth (normalized) to control (Zygosaccharomyces bailii; pH 4.0, LAE 0 ppm, Cinnamic Acid 20 ppm): 94% | amount of growth (normalized) to control (Zygosaccharomyces bailii; pH 4.0, LAE 0 ppm, Cinnamic Acid 50 ppm): 78% | amount of growth (normalized) to control (Zygosaccharomyces bailii; pH 4.0, LAE 0 ppm, Cinnamic Acid 75 ppm): 74% | amount of growth (normalized) to control (Zygosaccharomyces bailii; pH 4.0, LAE 0 ppm, Cinnamic Acid 100 ppm): 56% | QCA* (quantity of cinnamic acid alone required for the end point) (Zygosaccharomyces bailii; [3]): QCA* 300 | concentration of cinnamic acid to which fungal strains are tolerant ([1]; incubation of 16 weeks, pH 3.4): 300 ppm and 450 ppm | stand alone concentration needed for preservation against spoilage for at least 16 weeks ([1]; stand alone preservative, 16 weeks): 450-500 ppm | cinnamic acid in the form of the un-dissociated acid ([2]; beverage pH 4.5): at least 45% | cinnamic acid in the form of the un-dissociated acid ([2]; pH 5.5): ≤ 7.6% | MIC (fungal strains): 125-180 ppm

CCCCCCCCCCCC(=O)N[C@@H](CCCNC(=N)N)C(=O)OCC.Cl [LAE, ethyl-N-lauroyl-L-argniate hydrochloride]
QA/Qa + QB/Qb (Zygosaccharomyces bailii; QLAE 76, QCA 0): 1.00 | QLAE/QLAE* (Zygosaccharomyces bailii; QLAE 76, QCA 0): 1.00 | QNaB/QNAB* (Zygosaccharomyces bailii; QLAE 76, QCA 0): 0.00 | log (QA/Qa + QB/Qb) (Zygosaccharomyces bailii; QLAE 76, QCA 0): 0.0000 | amount of growth (normalized) to control (Zygosaccharomyces bailii; pH 3.0, LAE 2.5 ppm, Cinnamic Acid 0 ppm): 81% | amount of growth (normalized) to control (Zygosaccharomyces bailii; pH 3.0, LAE 5 ppm, Cinnamic Acid 0 ppm): 88% | amount of growth (normalized) to control (Zygosaccharomyces bailii; pH 3.0, LAE 7.5 ppm, Cinnamic Acid 0 ppm): 82% | amount of growth (normalized) to control (Zygosaccharomyces bailii; pH 3.0, LAE 10 ppm, Cinnamic Acid 0 ppm): 79% | amount of growth (normalized) to control (Zygosaccharomyces bailii; pH 3.0, LAE 15 ppm, Cinnamic Acid 0 ppm): 75% | amount of growth (normalized) to control (Zygosaccharomyces bailii; pH 3.5, LAE 2.5 ppm, Cinnamic Acid 0 ppm): 95% | amount of growth (normalized) to control (Zygosaccharomyces bailii; pH 3.5, LAE 5 ppm, Cinnamic Acid 0 ppm): 75% | amount of growth (normalized) to control (Zygosaccharomyces bailii; pH 3.5, LAE 7.5 ppm, Cinnamic Acid 0 ppm): 75% | amount of growth (normalized) to control (Zygosaccharomyces bailii; pH 3.5, LAE 10 ppm, Cinnamic Acid 0 ppm): 78% | amount of growth (normalized) to control (Zygosaccharomyces bailii; pH 3.5, LAE 15 ppm, Cinnamic Acid 0 ppm): 86% | amount of growth (normalized) to control (Zygosaccharomyces bailii; pH 4.0, LAE 2.5 ppm, Cinnamic Acid 0 ppm): 94% | amount of growth (normalized) to control (Zygosaccharomyces bailii; pH 4.0, LAE 5 ppm, Cinnamic Acid 0 ppm): 80% | amount of growth (normalized) to control (Zygosaccharomyces bailii; pH 4.0, LAE 7.5 ppm, Cinnamic Acid 0 ppm): 85% | amount of growth (normalized) to control (Zygosaccharomyces bailii; pH 4.0, LAE 10 ppm, Cinnamic Acid 0 ppm): 114% | amount of growth (normalized) to control (Zygosaccharomyces bailii; pH 4.0, LAE 15 ppm, Cinnamic Acid 0 ppm): 124% | QLAE* (quantity of LAE alone required for the end point) (Zygosaccharomyces bailii; [3]): QLAE* 76 | recommended stand alone concentration to stabilize beverages against spoilage (yeast and mold): 128 ppm
